Measured values taken from PubChem BioAssay (NCI).
Several values for one entry are separate records, joined by “and”; a condition that tells them apart may be missing. Identical values can stand only once.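 96-well plates; 48 h exposure; 5 concentrations. Endpoints by linear interpolation between flanking doses. Not reached: highest tested concentration assigned. The concentration for 50% growth inhibition is given as GI50. TGI is the concentration that stops growth completely.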

Key:
Test in all cases: inhibition of tumour cell growth, NCI panel, 48 h
[1] = tested on: SF-539 CNS
[2] = tested on: MDA-MB-231 breast
[3] = tested on: EKVX NSCLC
[4] = tested on: MOLT-4 leukemia
[5] = tested on: CAKI-1 renal
[6] = tested on: UACC-62 melanoma
[7] = tested on: OVCAR-8 ovarian
[8] = tested on: LOX IMVI melanoma
[9] = tested on: SF-268 CNS
[10] = tested on: BT-549 breast
[11] = tested on: DU-145 prostate
[12] = tested on: SK-MEL-2 melanoma

Row | SMILES | TGI [1] | TGI [2] [µM] | TGI [3] | TGI [4] | TGI [5] [µM] | TGI [6] | TGI [7] | TGI [8] | TGI [9] [µM] | TGI [10] [µM] | TGI [11] [µM] | TGI [12] | GI50 [3] | GI50 [4] | GI50 [6] | GI50 [7] [µM] | GI50 [8] | GI50 [9] [µM]
1 | CC1(C)C2CC1C(/C=N\OCC(=O)O)=CC2=O (centres undefined) | > 100 µM | > 100 | > 100 µM | > 100 µM | > 100 | > 100 µM | > 100 µM | > 100 µM | > 100 | > 100 | > 100 | > 100 µM |  |  |  |  |  | 
2 | Nc1c(O)c2c(c(O)c1Cl)C(=O)C=CC2=O | 7.76 µM | 19.7 | 24.4 µM | > 87.6 µM | 32.2 | 3.05 µM | 14 µM | 16.4 µM | 26.3 | 3.38 | 5.3 | 23.8 µM |  |  |  |  |  | 
3 | NS(=O)(=O)c1ccc(NC(=S)/N=C/c2c(O)c3ccccc3[nH]c2=O)cc1 | > 100 µM | > 100 | > 100 µM | > 100 µM | > 100 | > 100 µM | > 100 µM | > 100 µM | > 100 | > 100 | > 100 | > 100 µM |  |  |  |  |  | 
4 | Clc1ccccc1-c1nn2c(CCCCCCCCc3nnc4sc(-c5ccccc5Cl)nn34)nnc2s1 | > 100 µM | > 100 | > 100 µM | > 100 µM | > 100 | > 100 µM | > 100 µM | > 100 µM | > 100 | > 100 | > 100 | > 100 µM |  |  |  |  |  | 
5 | COC(=O)/N=[N+](\[O-])C(c1ccc(Cl)cc1)c1ccc(Cl)cc1 | > 100 µM | 77.1 | > 100 µM | > 100 µM | 34.5 | > 100 µM | > 100 µM | 43.6 µM | > 100 | > 100 | > 100 | > 100 µM |  |  |  |  |  | 
6 | Cc1cccc(/C=N/NC(=S)NC2CCCCC2)n1 | 88.6 µM | > 100 | > 100 µM | 13.9 µM | > 100 | 59.2 µM | > 69 µM | 99 µM | > 100 | > 100 | > 100 | > 100 µM |  |  |  |  |  | 
7 | COC(=O)C1C(O)C(C)C(O)C(C)/C=C\C=C(C)C(=O)Nc2c(C)c(OC(C)=O)c3c(c2O)C(=O)C(C)=C2OCOC(=C23)C(C)=CC(C)(O)C(O)C(C)C1O (centres undefined) | 74.3 µM and > 100 µM | > 100 | 73.7 µM and > 100 µM | 45.4 µM and > 100 µM | > 62.2 | 37.7 µM and > 100 µM | 47 µM and > 100 µM | 41 µM and > 100 µM | > 100 | > 100 | > 100 | 36.2 µM and > 100 µM | 48 µM and > 100 µM | 18.1 µM and 51.1 µM | 17 µM and > 100 µM | 23.6 | 17.9 µM and 41.3 µM | 39.4
8 | CCOC(=O)NC(Nc1cccc(F)c1)(C(F)(F)F)C(F)(F)F | > 100 µM | > 100 | > 100 µM | > 100 µM | > 100 | > 100 µM | > 100 µM | > 100 µM | > 100 | > 100 | > 100 | > 100 µM |  |  |  |  |  | 
9 | COP(=N[Si](C)(C)C)(OC)OC | > 100 µM | > 100 | > 100 µM | > 100 µM | > 100 | > 100 µM | > 100 µM | > 100 µM | > 100 | > 100 | > 100 | > 100 µM |  |  |  |  |  | 
10 | CSC1=C(C)S/C(=C\c2ccc(/C=C3\SC(C)=C(SC)S3)cc2)S1 | 92.5 µM | > 100 | > 100 µM | > 100 µM | > 100 | > 100 µM | > 100 µM | > 100 µM | > 100 | > 100 | > 100 | > 100 µM |  |  |  |  |  | 
11 | Cc1cccc2c1CC(C1OC(=O)c3c(C)cccc31)C2=O (centres undefined) | > 100 µM | > 100 | > 100 µM | > 100 µM | > 100 | > 100 µM | > 100 µM | > 100 µM | > 100 | > 100 | > 100 | > 100 µM |  |  |  |  |  | 
12 | CCOc1cc(NC(C)=O)ccc1C(=O)NN1C(=O)C(Cl)C1c1ccc(O)c(OC)c1 (centres undefined) | 26.8 µM | 26.9 | 31.5 µM | 19 µM | 31.4 | 25.5 µM | 82.3 µM | 7.79 µM | 35.9 | 21.9 | 29 | 33.5 µM |  |  |  |  |  | 
13 | CCOC(=O)C12C3CCC1C2C(=O)C3 (centres undefined) | > 100 µM | > 100 | > 100 µM | > 100 µM | > 100 | > 100 µM | > 100 µM | > 100 µM | > 100 | > 100 | > 100 | > 100 µM |  |  |  |  |  | 
14 | COc1ccccc1/[N+]([O-])=C/c1ccccc1OC(=S)S | > 100 µM | > 100 | > 100 µM | > 100 µM | > 100 | > 100 µM | 66.2 µM | > 100 µM | > 100 | > 100 | > 100 | 80.2 µM |  |  |  |  |  | 
15 | CCCCCCCCCCCCOCCCCCCCCC/C=C/c1ccc2c(c1)OCCOCCOCCOCCO2 | 31.4 µM | 37.7 | 61.6 µM | > 100 µM | 33.5 | 30.3 µM | 25.5 µM | 38.9 µM | 48.2 | 40.6 | > 100 | 30.2 µM |  |  |  |  |  | 
16 | Cc1ccc([N+](=O)[O-])cc1S(=O)(=O)Nc1ccc(C2=NOC(c3ccccc3)C2)cc1 (centres undefined) | 33.4 µM | 88.3 | 69.1 µM | 9.23 µM | 32.7 | 18.3 µM | > 100 µM | 24.3 µM | > 100 | 51.9 | 33.9 | 21.3 µM |  |  |  |  |  | 
17 | CCOC(=O)NC(OCCN(C)C)(C(F)(F)F)C(F)(F)F | > 100 µM | > 100 | > 100 µM | > 100 µM | > 100 | > 100 µM | > 100 µM | > 100 µM | > 100 | > 100 | > 100 | > 100 µM |  |  |  |  |  | 
18 | CN(C)Cc1cc(N=Nc2c(Cl)cccc2Cl)ccc1O | > 100 µM | > 100 | > 100 µM | > 100 µM | > 100 | > 100 µM | > 100 µM | > 100 µM | > 100 | > 100 | > 100 | > 100 µM |  |  |  |  |  | 
19 | O=S(=O)(O)c1ccc(N=Nc2c(O)ccc3ccccc23)cc1 | > 100 µM | > 100 | > 100 µM | > 100 µM | > 100 | > 100 µM | > 100 µM | > 100 µM | > 100 | > 100 | > 100 | > 100 µM |  |  |  |  |  | 
20 | O=c1oc2ccccc2cc1-c1nc2ccccc2c(=O)[nH]1 | > 100 µM | > 100 | > 100 µM | > 100 µM | > 100 | > 100 µM | > 100 µM | > 100 µM | > 100 | > 100 | > 100 | > 100 µM |  |  |  |  |  | 
21 | O=C1CSC2(CC(/C=C/c3cccc(Br)c3)=NN2c2cccc(S(=O)(=O)O)c2)N1c1nc2ccccc2s1 (centres undefined) | > 100 µM | > 100 | > 100 µM | > 100 µM | > 100 | > 100 µM | > 100 µM | > 100 µM | > 100 | > 100 | > 100 | > 100 µM |  |  |  |  |  | 
22 | N/C(=N\Nc1cccc(Cl)c1)c1cccnc1 | > 60.8 µM | > 100 | > 100 µM | > 100 µM | > 100 | > 100 µM | > 100 µM | > 100 µM | > 100 | > 100 | > 100 | > 100 µM |  |  |  |  |  | 
23 | COC(=O)C1=C(O)C(C(=O)OC)[C@]2(O)[C@H](C(=O)OC)[C@H]1C[C@@H](c1ccc(Cl)cc1Cl)[C@H]2C(=O)OC (some centres undefined) | 17.5 µM | 60 | > 100 µM | 8.98 µM | > 100 | 35.3 µM | 18 µM | 18.7 µM | 38.1 | 66.6 | 25.7 | 20.3 µM |  |  |  |  |  | 
24 | COc1ccc2c(c1)nc1n2C(c2c(F)cccc2F)SC1 (centres undefined) | > 100 µM | > 100 | > 100 µM | > 100 µM | > 100 | > 100 µM | > 100 µM | > 100 µM | > 100 | > 100 | > 100 | 96.7 µM |  |  |  |  |  | 
